In patent publication US20230372498A1, “PLK1 SELECTIVE DEGRADATION INDUCING COMPOUND” (UPPTHERA, priority 2020, published 2023):

Target: T1, PLK1 (Homo sapiens, UniProt P53350)
T1 construct: endogenous in cells; host or cells: HeLa
Experiment: PLK1 protein degradation in HeLa cells, Western blotting (PLK1/GAPDH ratio)
Type: cell-based
Conditions: 6 hours compound incubation; for DC50: measured only if the grade of Dmax is A or B; for Dmax: thymidine block and release, 10 points three-fold from 3 μM, PLK1 to GAPDH ratio, read-out: Dmax
Procedure, shortened: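 PLK1 level measured by Western blot as PLK1/GAPDH in HeLa lysates (15 μg protein per lane). Cells were blocked with 2 mM thymidine 24 h, released 4 h, and exposed 6 h to compound, 10 concentrations, 3-fold steps, top 3 μM.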

T1 sequence (P53350 whole entry): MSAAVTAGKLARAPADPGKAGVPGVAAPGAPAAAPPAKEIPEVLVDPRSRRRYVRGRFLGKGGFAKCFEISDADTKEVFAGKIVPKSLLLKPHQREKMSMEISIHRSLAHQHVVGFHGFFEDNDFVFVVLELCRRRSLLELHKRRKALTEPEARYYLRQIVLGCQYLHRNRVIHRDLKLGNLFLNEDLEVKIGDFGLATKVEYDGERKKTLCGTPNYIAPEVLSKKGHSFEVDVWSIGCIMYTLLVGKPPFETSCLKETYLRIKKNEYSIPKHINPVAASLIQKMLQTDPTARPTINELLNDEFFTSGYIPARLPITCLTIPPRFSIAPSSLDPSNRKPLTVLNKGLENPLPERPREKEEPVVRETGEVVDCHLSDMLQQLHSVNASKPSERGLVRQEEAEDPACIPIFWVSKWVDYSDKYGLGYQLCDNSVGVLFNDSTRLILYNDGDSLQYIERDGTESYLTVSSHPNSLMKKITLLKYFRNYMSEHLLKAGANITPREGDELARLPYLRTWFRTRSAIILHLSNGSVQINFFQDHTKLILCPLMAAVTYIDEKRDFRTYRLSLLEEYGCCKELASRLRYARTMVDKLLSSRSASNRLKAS

SMILES	DC50 [nM]	Dmax [%]
COc1cc(C(=O)NC2CCN(C(=O)N3CCN(c4cccc5c4C(=O)N(C4CCC(=O)NC4=O)C5=O)CC3)CC2)c(F)cc1Nc1ncc2c(n1)N(C1CCCC1)CC(F)(F)C(=O)N2C (stereo not drawn) [Compound 69, 4-((9-cyclopentyl-7,7-difluoro-5-methyl-6-oxo-6,7,8,9-tetrahydro-5H-pyrimido[4,5-b][1,4]diazepin-2-yl)amino)-N-(1-(4-(2-(2,6-dioxopiperidin-3-yl)-1,3-dioxoisoindolin-4-yl)piperazine-1-carbonyl)piperidin-4-yl)-2-fluoro-5-methoxybenzamide]	≤ 50	≥ 80
CN1C(=O)C(F)(F)CN(C2CCCC2)c2nc(Nc3ccc(C(=O)NC4CCN(C(=O)CCCNc5cccc6c5C(=O)N(C5CCC(=O)NC5=O)C6=O)CC4)cc3)ncc21 (stereo not drawn) [Example 102, 4-((9-cyclopentyl-7,7-difluoro-5-methyl-6-oxo-6,7,8,9-tetrahydro-5H-pyrimido[4,5-b][1,4]diazepin-2-yl)amino)-N-(1-(4-((2-(2,6-dioxopiperidin-3-yl)-1,3-dioxoisoindolin-4-yl)amino)butanoyl)piperidin-4-yl)benzamide]	≤ 50	≥ 80
COc1cc(C(=O)NC2CCN(CCN3CCN(c4ccc5c(c4)C(=O)N(C4CCC(=O)NC4=O)C5=O)CC3)CC2)c(F)cc1Nc1ncc2c(n1)N(C1CCCC1)CC(F)(F)C(=O)N2C (stereo not drawn) [Compound 68, 4-((9-cyclopentyl-7,7-difluoro-5-methyl-6-oxo-6,7,8,9-tetrahydro-5H-pyrimido[4,5-b][1,4]diazepin-2-yl)amino)-N-(1-(2-(4-(2-(2,6-dioxopiperidin-3-yl)-1,3-dioxoisoindolin-5-yl)piperazin-1-yl)ethyl)piperidin-4-yl)-2-fluoro-5-methoxybenzamide]	≤ 500	60 to 80
COc1cc(C(=O)NC2CCN(CCCCCCCCNc3cccc4nnn(C5CCC(=O)NC5=O)c(=O)c34)CC2)c(F)cc1Nc1ncc2c(n1)N(C1CCCC1)CC(F)(F)C(=O)N2C (stereo not drawn) [Compound 79, 4-((9-cyclopentyl-7,7-difluoro-5-methyl-6-oxo-6,7,8,9-tetrahydro-5H-pyrimido[4,5-b][1,4]diazepin-2-yl)amino)-N-(1-(8-((3-(2,6-dioxopiperidin-3-yl)-4-oxo-3,4-dihydrobenzo[d][1,2,3]triazin-5-yl)amino)octyl)piperidin-4-yl)-2-fluoro-5-methoxybenzamide]	≤ 50	≥ 80
COc1cc(C(=O)N[C@@H]2CCN(C(=O)CCN3CCN(c4ccc5c(c4)C(=O)N(C4CCC(=O)NC4=O)C5=O)CC3)C2)c(F)cc1Nc1ncc2c(n1)N(C1CCCC1)CC(F)(F)C(=O)N2C (stereo partly drawn) [Compound 137, 4-((9-cyclopentyl-7,7-difluoro-5-methyl-6-oxo-6,7,8,9-tetrahydro-5H-pyrimido[4,5-b][1,4]diazepin-2-yl)amino)-N-((3R)-1-(3-(4-(2-(2,6-dioxopiperidin-3-yl)-1,3-dioxoisoindolin-5-yl)piperazin-1-yl)propanoyl)pyrrolidin-3-yl)-2-fluoro-5-methoxybenzamide]	≤ 50	≥ 80
COc1cc(C(=O)NC2CCN(C(=O)CCCNc3cccc4c3C(=O)N(C3CCC(=O)NC3=O)C4=O)CC2)c(F)cc1Nc1ncc2c(n1)N(C1CCCC1)CC(F)(F)C(=O)N2C (stereo not drawn) [Compound 39, 4-((9-cyclopentyl-7,7-difluoro-5-methyl-6-oxo-6,7,8,9-tetrahydro-5H-pyrimido[4,5-b][1,4]diazepin-2-yl)amino)-N-(1-(4-((2-(2,6-dioxopiperidin-3-yl)-1,3-dioxoisoindolin-4-yl)amino)butanoyl)piperidin-4-yl)-2-fluoro-5-methoxybenzamide]	≤ 50	≥ 80
COc1cc(C(=O)NC2CCN(CCCOCCCOCCCOCCNc3cccc4c3C(=O)N(C3CCC(=O)NC3=O)C4=O)CC2)c(F)cc1Nc1ncc2c(n1)N(C1CCCC1)CC(F)(F)C(=O)N2C (stereo not drawn) [Compound 24, 4-((9-cyclopentyl-7,7-difluoro-5-methyl-6-oxo-6,7,8,9-tetrahydro-5H-pyrimido[4,5-b][1,4]diazepin-2-yl)amino)-N-(1-(3-(3-(3-(2-((2-(2,6-dioxopiperidin-3-yl)-1,3-dioxoisoindolin-4-yl)amino)ethoxy)propoxy)propoxy)propyl)piperidin-4-yl)-2-fluoro-5-methoxybenzamide]	≤ 50	≥ 80
COc1cc(C(=O)NC2CCN(CCc3ccc(CC(=O)Nc4cccc5c4C(=O)N(C4CCC(=O)NC4=O)C5=O)cc3)CC2)c(F)cc1Nc1ncc2c(n1)N(C1CCCC1)CC(F)(F)C(=O)N2C (stereo not drawn) [Compound 42, 4-((9-cyclopentyl-7,7-difluoro-5-methyl-6-oxo-6,7,8,9-tetrahydro-5H-pyrimido[4,5-b][1,4]diazepin-2-yl)amino)-N-(1-(4-(2-((2-(2,6-dioxopiperidin-3-yl)-1,3-dioxoisoindolin-4-yl)amino)-2-oxoethyl)phenethyl)piperidin-4-yl)-2-fluoro-5-methoxybenzamide]	> 500	60 to 80
COc1cc(C(=O)NC2CCN(CCOCCNC(=O)CNc3cccc4c3C(=O)N(C3CCC(=O)NC3=O)C4=O)CC2)c(F)cc1Nc1ncc2c(n1)N(C1CCCC1)CC(F)(F)C(=O)N2C (stereo not drawn) [Compound 29, 4-((9-cyclopentyl-7,7-difluoro-5-methyl-6-oxo-6,7,8,9-tetrahydro-5H-pyrimido[4,5-b][1,4]diazepin-2-yl)amino)-N-(1-(2-(2-(2-((2-(2,6-dioxopiperidin-3-yl)-1,3-dioxoisoindolin-4-yl)amino)acetamido)ethoxy)ethyl)piperidin-4-yl)-2-fluoro-5-methoxybenzamide]	≤ 50	≥ 80
COc1cc(C(=O)NC2CCN(CCCOCCCNc3cccc4c3C(=O)N(C3CCC(=O)NC3=O)C4=O)CC2)c(F)cc1Nc1ncc2c(n1)N(C1CCCC1)CC(F)(F)C(=O)N2C (stereo not drawn) [Compound 18, 4-((9-cyclopentyl-7,7-difluoro-5-methyl-6-oxo-6,7,8,9-tetrahydro-5H-pyrimido[4,5-b][1,4]diazepin-2-yl)amino)-N-(1-(3-(3-((2-(2,6-dioxopiperidin-3-yl)-1,3-dioxoisoindolin-4-yl)amino)propoxy)propyl)piperidin-4-yl)-2-fluoro-5-methoxybenzamide]	≤ 500	60 to 80
COc1cc(C(=O)NCC2CCCN2CCOCCNc2cccc3c2C(=O)N(C2CCC(=O)NC2=O)C3=O)c(F)cc1Nc1ncc2c(n1)N(C1CCCC1)CC(F)(F)C(=O)N2C (stereo not drawn) [Compound 124, 4-((9-cyclopentyl-7,7-difluoro-5-methyl-6-oxo-6,7,8,9-tetrahydro-5H-pyrimido[4,5-b][1,4]diazepin-2-yl)amino)-N-((1-(2-(2-((2-(2,6-dioxopiperidin-3-yl)-1,3-dioxoisoindolin-4-yl)amino)ethoxy)ethyl)pyrrolidin-2-yl)methyl)-2-fluoro-5-methoxybenzamide]	≤ 500	60 to 80
COc1cc(C(=O)NC2CC3(C2)CN(C(=O)CCNc2cccc4c2C(=O)N(C2CCC(=O)NC2=O)C4=O)C3)c(F)cc1Nc1ncc2c(n1)N(C1CCCC1)CC(F)(F)C(=O)N2C (stereo not drawn) [Compound 159, 4-((9-cyclopentyl-7,7-difluoro-5-methyl-6-oxo-6,7,8,9-tetrahydro-5H-pyrimido[4,5-b][1,4]diazepin-2-yl)amino)-N-(2-(3-((2-(2,6-dioxopiperidin-3-yl)-1,3-dioxoisoindolin-4-yl)amino)propanoyl)-2-azaspiro[3.3]heptan-6-yl)-2-fluoro-5-methoxybenzamide]	≤ 50	≥ 80
